Measurements as given in paper PMC7179167 (Molecules, 2020).
Converted amounts (≈) assume the structure as drawn. Like-named read-outs stand apart in the source and are kept apart here.

What was measured:
S. aureus (ATCC 6538) = test: Disk diffusion antimicrobial test, S. aureus; assay type: cell-based, Staphylococcus aureus; details: 20 mg per disc (title), concentration 20 µg (footnote); for zone of inhibition at 20 µg/disc: Staphylococcus aureus, ATCC6538, Gram-positive
Method: (§1) The newly synthesized compounds were chosen to be evaluated in vitro towards a variety of pathogenic microorganisms; Gram-positive bacteria: S. aureus (ATCC 6538) and B. subtilis (ATCC 6633); Gram-negative bacteria: P. areuginosa (ATCC 27853) and E. coli (DSMZ 1058); yeast: C. albicans (ATCC 10231) and S. cerevisiae (ATCC 9080) and fungi: A. niger (NRRL A-326) using the disk diffusion method at a single dose of 20 µl. The results are shown in Table 1 as the growth inhibition zone (mm).
(§2) The antimicrobial activity of target compounds were evaluated to be in vitro against a variety of pathogenic microorganisms, namely Staphylococcus aureus (ATCC 6538), Bacillus subtilis (ATCC 6633) (Gram-positive bacteria), Pseudomonas areuginosa (ATCC 27853), Escherichia coli (DSMZ 1058) (Gram-negative bacteria), Candida albicans (ATCC 10231), Saccharomyces cerevisiae (ATCC 9080) (Yeast) and Aspergillus niger (NRRL A-326) (Fungi) using the disk diffusion method at a single dose of 20 µg. The microorganisms were served and obtained from the Microbial Biotechnology Department, National Research Center, Giza, Egypt. Amphotericin, amoxicillin and ciprofloxacin were used as reference drugs (Oxoid™ Disks). The tested compounds 11a–c, 12a–c, 13a–i, 14a–i and 15a,b were dissolved in dimethylsulphoxide (DMSO) at a concentration of 1 mg/mL. Aliquots of 20 μl were soaked on filter paper discs (6 mm) and dried at room temperature under sterilized conditions. The paper discs were placed on inoculated agar plats and then incubated for 24 h at 37 °C for bacterial strains and after 48–72 h incubation at 30 °C for fungi. Both bacterial and yeast strains were grown on nutrient agar medium (g/l): beef extract, 3; peptone, 10 and agar, 20 at pH of 7.2. The fungal strain was grown on Czapek-Dox medium (g/l): sucrose, 30; NaNO3, 3; MgSO4.7H2O, 0.5l; KCl, 0.5; FeSO4, 0.01; K2HPO4, 1 and agar, 20 at pH of 6.0.

C. albicans (ATCC 10231) = test: Disk diffusion antimicrobial test, C. albicans; assay type: cell-based, Candida albicans; details: yeast, 20 mg per disc (title), concentration 20 µg (footnote); for zone of inhibition at 20 µg/disc: Candida albicans, ATCC10231, disk diffusion
Method: as §1, §2

[1] = DPPH free radical scavenging assay; assay type: biochemical; details: concentration of 20µg/l, mean ± SD of three experiments
Method: Antioxidant activity of the newly synthesized 13a–i, 14a–i, 11a–c and 12a–c were assessed in terms of hydrogen-donating or radical-scavenging ability via the stable free radical 1,1-diphenyl-2-picrylhydrazyl (DPPH) using ascorbic acid as a reference at a concentration of […].
The free radical scavenging activity (RSA) was assessed spectrophotometically at 517 nm via decoloration of the solution of the DPPH (1,1-diphenyl-2-picrylhydrazyl) radical according to Brand-Williams et al. 1995 [32]. DPPH solution was prepared by dissolving of 20 mg of DPPH in one liter of dimethylsulphoxide (DMSO). A freshly prepared DPPH solution was used for the assay. Each of the tested compounds 11a–c, 12a–c, 13a–i, 14a–i and 15a,b were dissolved in DMSO (1mg/mL). A volume of […] of a DMSO stock solution of the test compounds was added to 2 mL of freshly prepared DPPH in DMSO solution. The mixtures were shaken in a vortex (2500 rpm) for 1 min and then left to stand for 15, 30, 45 and 60 min in the dark room. The absorbance was measured at 517 nm against blank using UV visible spectrophotometer 2401 PC (Shimadzu, Kyoto, Japan). Lower absorbance of the reaction mixture indicated higher free radical scavenging activity was analyzed from the graph plots of the inhibition percentage against the compound concentration. The experiment was carried out in triplicate and averaged. The scavenging activity was calculated according to the following formula:Scavenging ability (%) = (A517 of control - A517of sample / A 517 of control) ×100(1)

B. subtilis (ATCC 6633) = test: Disk diffusion antimicrobial test, B. subtilis; assay type: cell-based, Bacillus subtilis; details: 20 mg per disc (title), concentration 20 µg (footnote); for zone of inhibition at 20 µg/disc: Bacillus subtilis, ATCC6633, Gram-positive
Method: as §1, §2

[2] = system: S. cerevisiae (ATCC 9080); test: Disk diffusion antimicrobial test, S. cerevisiae; assay type: cell-based; details: Saccharomyces cerevisiae, ATCC9080, yeast, 20 mg per disc (title), concentration 20 µg (footnote)
Method: as §1, §2

A. niger (NRRL A-326) = test: Disk diffusion antimicrobial test, A. niger; assay type: cell-based; details: Aspergillus niger, fungi, 20 mg per disc (title), concentration 20 µg (footnote)
Method: as §1, §2

[3] = system: P. aeruginosa (ATCC 27853); test: Disk diffusion antimicrobial test, P. aeruginosa; assay type: cell-based, Pseudomonas areuginosa; details: Pseudomonas aeruginosa, ATCC27853, Gram-negative, 20 mg per disc (title), concentration 20 µg (footnote)
Method: as §1, §2

[4] = system: normal skin fibroblast cells (BJ-1); test: MTT cytotoxicity assay, normal skin fibroblast BJ-1; assay type: cell-based; details: Homo sapiens, 48 h, read-out: Growth Inhibition (%) BJ-1
[5] = system: HCT-116 (human colon cancer); test: MTT cytotoxicity assay, HCT-116; assay type: cell-based; details: Homo sapiens; for inhibition at 100 µg/mL: HCT-116, 100 µg/ml, 48 h, read-out: Growth Inhibition (%) HCT-116
Method: (§5) MCF-7 (human breast cancer), HCT-116 (human colon cancer) and HepG2 (human liver cancer) cell lines were obtained from Karolinska Institute, Stockholm, Sweden. All cells were maintained in RPMI 1640 medium. The media were supplemented with 10% heat-inactivated fetal bovine serum plus 1% antibiotic-antimycoticmixture (10,000 U/mL of potassium penicillin, 10,000 μg/mL of streptomycin sulfate, 25 μg/mL of amphotericin B and 1% of L glutamine (Biowest, USA)). BJ-1 of a human skin fibroblast derived from normal foreskin was obtained from ATCC® CRL-2522™ as a frozen ampoule with about 1 × 10^6 cells per 1 ml volume. BJ-1 was maintained in MEM with 2 mM of L-glutamine and Earle’s salts medium.
(§6) Cell viability was studied using the MTT 3-(4,5-dimethylthiazol-2-yl)-2,5-diphenyl-tetrazolium bromide (Bio Basic Canada Inc. Toronto, Canada) assay [33]. The steps were executed in a sterile laminar air flow cabinet biosafety class II level (Baker, SG403INT; Sanford, ME, USA). All incubations were carried out at 37 °C in a 5% CO2 incubator under a humidified atmosphere of 95% (Sheldon, TC2323; Cornelius, OR, USA). Cells were seeded into 96-well microtiter plastic plates at a concentration of (10^4 cells/well) and allowed to adhere for 24 h. The medium was aspirated and then added to the cells with the test compounds 11a–c, 12a–c, 13a–i, 14a–i and 15a,b at a single dose of 100 μg/mL in DMSO. After incubation of the medium for 48 h, 40 μL of MTT salt (2.5 μg/mL) was added to each well and then incubated for an additional 4 h. To stop the reaction and dissolve any formed formazan crystals, 200 μL of 10% sodium dodecyl sulfate (SDS) were added to each well and incubated overnight at 37 °C. The amount of formazan product was measured at 595 nm with a reference wavelength of 690 nm as a background using a microplate reader (Bio-Rad Laboratories, model 3350, California, USA). For the untreated cells (negative control), the medium was added instead of the tested compounds. […] Dimethylsulfoxide (DMSO) was the vehicle used for dissolution of the testing compound, and its final concentration on the cells was less than 0.2%. At the same dilution, the solvent concentration was the same for all drugs and between the control and drug treatments.

[6] = system: MCF-7 (human breast cancer); test: MTT cytotoxicity assay, MCF-7; assay type: cell-based; details: for inhibition at 100 µg/mL: MCF7, 100 µg/ml, 48 h, read-out: Growth Inhibition (%) MCF-7
Method: as §5, §6

caspase-3 [7] = test: Caspase-3 colorimetric assay in MCF-7 cells; assay type: cell-based, human
Text: (§3) The promising antiproliferative results reported for compounds 11a, 11b, 12a, 12b and 13c against cell lines under study have prompted us to investigate the mechanism of cell death induced by these compounds. Apoptosis induction was examined in both MCF-7 and HCT-116 cancer cells by assaying the level of its key protein markers, namely: proapoptotic (p53, Bcl 2-associated X, Bax and caspases3) and antiapoptotic (B-cell lymphoma-2, Bcl-2). MCF-7 and HCT-116 cells undergoing apoptosis was detected by use of the ELISA technique. Protein marker levels were quantified according to Bradford assay.
(§4) Briefly, cells ([…] and HCT) were seeded at a concentration of 1.2–1.8 × 10^3 cells/well in 6-well plates. After 48-h treatment, the collected cells were lysed and centrifuged at 10,000 rpm for 20 min at 4 °C. The protein concentration was measured in the supernatant by Bradford protein assay. Volume containing […] of total protein was incubated with […] of caspase substrate in […] of the reaction buffer at 37 °C for 1 h in the dark. Caspase-3 activity was determined by a microplate reader at 405 nm using a caspase-3 colorimetric assay kit (Abcam) according to the manufacturer’s instructions. In vitro protein level quantitative measurement of apoptotic marker p53, Bcl-2-associated X (Bax) and antiapoptotic marker B-cell lymphoma-2 (Bcl-2) in cell lysate were assessed by Enzyme-Linked Immunosorbent Assay Simple Step ELISA® (ab199080, ab119506 and ab171571; Abcam) according to the manufacturer’s instructions.

Bax [8] = test: Bax ELISA in HCT-116 cells; assay type: cell-based, human; details: HCT-116 cells treated at IC50 concentration; control 118.54 ± 0.83; mean ± SD
Text: as §3, §4

Bax [9] = test: Bax ELISA in MCF-7 cells; assay type: cell-based, human; details: MCF-7 cells treated at IC50 concentration; control 39.56 ± 4.56; mean ± SD
Text: as §3, §4

caspase-3 [10] = test: Caspase-3 colorimetric assay in HCT-116 cells; assay type: cell-based, human; details: HCT-116 cells treated at IC50 concentration; control 13.60 ± 2.45; mean ± SD
Text: as §3, §4

p53 [11] = test: p53 ELISA in HCT-116 cells; assay type: cell-based, human; details: HCT-116 cells treated at IC50 concentration; control 1.68 ± 0.06; mean ± SD
Text: as §3, §4

Bcl-2 [12] = test: Bcl-2 ELISA in HCT-116 cells; assay type: cell-based, human; details: HCT-116 cells treated at IC50 concentration; control 23.56 ± 3.56; mean ± SD
Text: as §3, §4

Bcl-2 [13] = test: Bcl-2 ELISA in MCF-7 cells; assay type: cell-based, human; details: MCF-7 cells treated at IC50 concentration; control 25.13 ± 3.45; mean ± SD
Text: as §3, §4

[14] = system: HepG-2 (human liver cancer); test: MTT cytotoxicity assay, HepG-2; assay type: cell-based
Method: as §5, §6

p53 [15] = test: p53 ELISA in MCF-7 cells; assay type: cell-based, human; details: MCF-7 cells treated at IC50 concentration; control 4.18 ± 0.58; mean ± SD
Text: as §3, §4

[16] = 15 min, read-out: Scavenging Activity (%) on DPPH radicals at 15 min
[17] = 30 min, read-out: Scavenging Activity (%) on DPPH radicals at 30 min
[18] = 45 min, read-out: Scavenging Activity (%) on DPPH radicals at 45 min
[19] = 60 min, read-out: Scavenging Activity (%) on DPPH radicals at 60 min

Compound	inhibition [1, 16]	inhibition [1, 17]	inhibition [1, 18]	inhibition [1, 19]	zone of inhibition at 20 µg/disc [2]	zone of inhibition at 20 µg/disc (C. albicans (ATCC 10231))	zone of inhibition at 20 µg/disc (A. niger (NRRL A-326))	zone of inhibition at 20 µg/disc [3]	zone of inhibition at 20 µg/disc (S. aureus (ATCC 6538))	inhibition at 100 µg/mL [4]	inhibition at 100 µg/mL [5]	inhibition at 100 µg/mL [6]	zone of inhibition at 20 µg/disc (B. subtilis (ATCC 6633))	also measured
3-(6-Hydroxy-4,6-dimethoxybenzofuran-5-yl)quinoline-4-carboxylic acid [Compound 15b]	23.6 ± 1.36%	32.7 ± 1.13%	39.2 ± 1.29%	47.5%	–	–	–	–	–	–	–	–	–	Inhibition Zone (mm), S. aureus (ATCC 6538) (S. aureus (ATCC 6538); Gram-positive): 8 mm; Inhibition Zone (mm), C. albicans (ATCC 10231) (C. albicans (ATCC 10231); disk diffusion): 8 mm; Inhibition Zone (mm), B. subtilis (ATCC 6633) (B. subtilis (ATCC 6633); Gram-positive): 10 mm
C[C@@H]1[C@H](O)[C@@H](C)/C=C/C=C/C=C/C=C/C=C/C=C/C=C/[C@H](O[C@@H]2O[C@H](C)[C@@H](O)[C@H](N)[C@@H]2O)C[C@@H]2O[C@](O)(C[C@@H](O)C[C@@H](O)[C@H](O)CC[C@@H](O)C[C@@H](O)CC(=O)O[C@H]1C)C[C@H](O)[C@H]2C(=O)O [Amphotericin B, amphotericin B, reference compound]	–	–	–	–	23.5 mm	23.5 mm	26.7 mm	–	–	–	–	–	–	–
CCOc1c(C2=NNC3(C2)C(=O)Nc2ccccc23)c(OC)c2ccoc2c1OC (stereo not shown) [Compound 12c, 5’-(6-Ethoxy-4,7-dimethoxy-benzofuran-5-yl)-2’,4’-dihydrospiro(indoline-3,3’-pyrazol)-2-one]	9.76 ± 1.76%	10.2 ± 1.26%	11.4 ± 1.53%	14 ± 1.55%	10 mm	10 mm	–	20 mm	10 mm	62.3%	12.4%	6.3%	18 mm	–
O=C1Nc2ccccc2C12CC(c1cn(Cc3ccccc3)c3ccccc13)=NN2 (stereo not shown) [Compound 13c, 5’-(N-Benzyl-1H-indol-3-yl)-2’,4’-dihydrospiro(indoline-3,3’-pyrazol)-2-one]	14 ± 1.36%	21 ± 1.26%	24 ± 1.51%	35.1 ± 1.61%	–	–	–	–	–	5.1%	97.9%	97.8%	–	Caspase-3 Activity % (caspase-3 [7]; MCF-7 cells treated at IC50 concentration, control 10.2 ± 2.84, mean ± SD): 39.07 ± 4.97%; Elevation of active caspase-3 protein levels compared to the control (caspase-3 [7]; MCF-7 cells, IC50 concentration): ~3.8 folds; IC50 ([5]; HCT-116, 48 h, 48 h post-treatment): 14.7 µg/mL (≈ 37.5 µM); Bax (pg/50 mg Protein) (Bax [8]): 123.45 ±7.45 pg/50 mg Protein; Bax (pg/50 mg Protein) (Bax [9]): 88.34 ± 3.79 pg/50 mg Protein; Caspase-3 Activity % (caspase-3 [10]): 47.32 ± 6.32%; p53 (pg/50 mg Protein) (p53 [11]): 2.34 ± 0.95 pg/50 mg Protein; Bcl-2 (ng/50 mg Protein) (Bcl-2 [12]): 57.45 ± 6.45 ng/50 mg Protein; Bcl-2 (ng/50 mg Protein) (Bcl-2 [13]): 44.5 ± 4.56 ng/50 mg Protein; inhibition at 100 µg/mL ([14]; HepG2, 100 µg/ml, 48 h, read-out: Growth Inhibition (%) HepG-2): 90.9%; IC50 ([14]; HepG2, 48 h post-treatment): 27 µg/mL (≈ 68.8 µM); p53 (Pg/50 mg Protein) (p53 [15]): 7.34 ± 1.5 Pg/50 mg Protein; IC50 ([6]; MCF7, 48 h post-treatment): 24.1 µg/mL (≈ 61.4 µM)
COc1c(-c2cnc3ccccc3c2C(=O)O)c(O)cc2occc12 [Compound 15a, 3-(6-Hydroxy-4-methoxybenzofuran-5-yl)quinoline-4-carboxylic acid]	9.36 ± 1.25%	14.2 ± 1.61%	20.4 ± 1.92%	24.8 ± 2.05%	–	12 mm	10 mm	24 mm	8 mm	–	–	–	16 mm	melting point: 217 to 219 °C
